Test results taken from patent US10154988B2, “Methods and compositions for treating schizophrenia” (The Johns Hopkins University, priority 2012, dated 2018).
Entries after “also recorded” stand apart in the source; their conditions may differ.

How the values were obtained:
[1] = test system: DG/CA3 region of aMCI subjects; experiment: fMRI activity in DG/CA3 during lure stimuli correctly identified as similar; format: in vivo, human
Experimental: A within-subjects trial of 8 weeks duration, involving 17 amnestic MCI (aMCI) subjects and 17 age-matched controls with a low dose treatment of levetiracetam is conducted. […] Cognitive testing and fMRI imaging data are obtained from the subjects after each two week period of drug/placebo treatment. […] The […]

[2] = test system: Age-Impaired (AI) Long-Evans rats; experiment: Morris Water Maze retention trial, levetiracetam in aged-impaired rats; format: in vivo, rat
Experimental: The MWM apparatus consists of a large, circular pool (diameter 1.83 m; height, 0.58 m) filled with water (27° C.) that is made opaque through the addition of non-toxic pigment or some other substance. In the typical “hidden platform” version of the test, rats are trained to find a camouflaged white escape platform (height, 34.5 cm) that is positioned in the center of one quadrant of the maze about 1.0 cm below the water surface. This platform can be retracted to the bottom of the tank or raised to its normal position from outside the maze during behavioral testing. The location of the platform remains constant from trial to trial. Because there are no local cues that mark the position of the platform, the rat's ability to locate it efficiently from any starting position at the perimeter of the pool depends on using information surrounding the maze. The maze is surrounded by black curtains to which white patterns are affixed to provide a configuration of spatial cues. A second platform (height 37.5 cm), with its surface painted black is elevated 2 cm above the water surface during cue training to control for factors unrelated to cognition. The behavior of a rat in the pool is recorded by a camera that is suspended 2.5 m above the center of the pool. The camera is connected to a video tracking system (HVS Image Advanced Tracker VP200) and a PC computer running HVS software developed by Richard Baker of HVS Image, Hampton, UK. The MWM protocol is optimized for sensitivity to the effects of aging on cognition and for measures of reliable individual differences within the aged population of out-bred Long-Evans rats (Gallagher et al. Behav. Neurosci. 107:618-626, (1993)). Rats receive three trials per day for 8 consecutive days, using a 60 sec inter-trial interval. On each training trial, the rat is released into the maze from one of four equally spaced starting positions around the perimeter of the pool. The starting position varies from trial to trial, thus preventing the use of a response strategy (e.g., always turning left from the start location to locate the escape platform). […] Every sixth trial consists of a probe trial to assess the development of spatial bias in the maze. During these trials, the rat swims with the platform being refracted to the bottom of the pool for 30 sec, at which time the platform is raised to its normal position for completion of the escape trial. At the completion of the protocol using the hidden platform, rats are assessed for cue learning using the visible platform. The location of this platform varies from trial to trial in a single session of 6 training trials. […]

[3] = test system: aMCI subjects; experiment: explicit 3-alternative forced choice task (lure-based memory performance); format: in vivo, human
[4] = 10 mg/kg/day i.p., retention trial

## CC[C@@H](C(N)=O)N1CCCC1=O [levetiracetam, (2S)-2-(2-oxopyrrolidin-1-yl) butanamide]
[1]; 125 mg twice a day for two weeks vs placebo, p=0.037
  DG/CA3 hyperactivity (fMRI mean activity): reduces DG/CA3 hyper-activity
[1]; 250 mg BID for two weeks vs placebo, N=17
  DG/CA3 hyperactivity (fMRI mean activity): does not significantly reduce; also recorded: No such improvement is observed
[2]; 5 mg/kg/day i.p., retention trial
  performance (time in target quadrant) versus vehicle: does not significantly improve
[2]; [4]
  memory as compared to vehicle-treated controls: significantly improved memory
  time spent in the target annulus: effectiveness of the 10 mg/kg/day levetiracetam treatment is also seen
[2]; 10 mg/kg/day i.p., retention trial 24 h after two training days, vehicle approximately 25%
  time spent in the target quadrant, percentage of total swimming time: approximately 35%
[3]; 62.5 mg BID for two weeks vs placebo, p=0.041
  performance in the explicit 3-alternative forced choice task: further improved performance in cognitive tests; also recorded: improves significantly
[3]; 125 mg twice a day for two weeks vs placebo, p=0.039
  performance in the explicit 3-alternative forced choice task: improves significantly
[3]; 250 mg BID for two weeks vs placebo, p=0.2396
  performance in the explicit 3-alternative forced choice task: does not significantly improve
